The text below walks through data of ChEMBL document CHEMBL3244225, “Synthesis and biological activity of some vinyl-substituted 2-nitroimidazoles” (J Med Chem, 1977).

For one series, the system named is Staphylococcus aureus. The series is described as follows: Antimicrobial activity against Staphylococcus aureus Tour by tube dilution method. The series is classed as functional.
A further series relates to Streptococcus pyogenes. Kind of series: Antimicrobial activity against Streptococcus haemolyticus C 203 by tube dilution method. Type of series: functional.
For the next series, the system named is Streptococcus pneumoniae. The series is described as follows: Antimicrobial activity against Diplococcus pneumoniae UC41 by tube dilution method. The series is classed as functional.
Another series has as its system Clostridium perfringens. The series is described as follows: Antimicrobial activity against Clostridium perfringens ISS 30543 by tube dilution method. Type of series: functional.
Another series concerns Proteus vulgaris. The series is described as follows: Antimicrobial activity against Proteus vulgaris X19 H ATCC 881 by tube dilution method. Type of series: functional.
The next series relates to Escherichia coli. Kind of series: Antimicrobial activity against Escherichia coli SKF 12140 by tube dilution method. Type of series: functional.
Another series relates to Shigella sonnei. Kind of series: Antimicrobial activity against Shigella sonnei ATCC 9290 by tube dilution method. Type of series: functional.
Another series relates to Salmonella typhimurium. The series is described as follows: Antimicrobial activity against Salmonella typhimurium Kh by tube dilution method. Type of series: functional, Salmonella enterica subsp. enterica serovar Typhimurium. Particulars: Salmonella enterica.
A further series concerns Klebsiella pneumoniae. The series is described as follows: Antimicrobial activity against Klebsiella pneumoniae I.S.M. by tube dilution method. The series is classed as functional.
Another series deals with Pseudomonas aeruginosa. The series is described as follows: Antimicrobial activity against Pseudomonas aeruginosa ATCC 10145 by tube dilution method. Type of series: functional.
The test system of another series is Candida albicans. The series is described as follows: Antimicrobial activity against Candida albicans SKF 2270 by tube dilution method. The series is classed as functional.
Series [1] concerns Trichophyton mentagrophytes. The series is described as follows: Antimicrobial activity against Trichophyton mentagrophytes SKF 17410 by tube dilution method. The series is classed as functional.
The test system of series [2] is Mycobacterium tuberculosis. The series is described as follows: Antimicrobial activity against Mycobacterium tuberculosis ATCC 9360 by tube dilution method. Type of series: functional.
Series [3] concerns Mycoplasmoides gallisepticum. The series is described as follows: Antimicrobial activity against Mycoplasma gallisepticum H21 C.Z.B. by tube dilution method. Type of series: functional.
In series [4] the test system is Trichomonas vaginalis. The series is described as follows: Trichomonastatic activity against Trichomonas vaginalis by tube dilution method. Type of series: functional.
Series [5] concerns Trichomonas vaginalis. The series is described as follows: Trichomonacidal activity against Trichomonas vaginalis by tube dilution method. Type of series: functional.
Series [6] concerns Trichomonas vaginalis. The series is described as follows: Ratio of metronidazole ED50 to compound ED50 for Trichomonas vaginalis infected in sc dosed mouse. The series is classed as functional.
Series [7] can be described thus: Toxicity in po dosed mouse infected with Trichomonas vaginalis. As to conditions: in vivo. Type of series: organism-based.
Series [8] concerns Trichomonas vaginalis. Kind of series: Antimicrobial activity against Trichomonas vaginalis infected in sc dosed mouse. The series is classed as functional.

Each structure is given as a SMILES string. ≈ marks a conversion by molar mass, not a printed value. Where only a bound is given, the exact number is not on record here.

Usually MIC stands for the lowest concentration found to suppress growth. What is called LD50 is the dose at which mortality reaches 50%. High values mean lower toxicity, low ones greater toxicity. Regarding `C=Cn1c(C)cnc1[N+](=O)[O-]`, the MIC against Staphylococcus aureus, against Streptococcus pyogenes, with Streptococcus pneumoniae, with Clostridium perfringens, against Proteus vulgaris and with Escherichia coli was above 100 µg/mL each time. Besides, the MIC (against Shigella sonnei; against Salmonella typhimurium; in the series on Klebsiella pneumoniae; against Pseudomonas aeruginosa; in the series on Candida albicans; in series [1]) was above 100 µg/mL throughout. Moreover, the MIC in series [2] is above 100 µg/mL; in series [3] it was above 100 µg/mL; against Trichomonas vaginalis [4], 20 µg/mL (≈ 131 µM); in the series on Trichomonas vaginalis [5], 50 µg/mL (≈ 326 µM). The “Ratio ED50” value in the series with Trichomonas vaginalis [6] was 0.6. In series [7], the median lethal dose (LD50) was determined as 75 mg/kg.
By ED50 is commonly meant the dose at which the effect has come halfway, by size or by number of responders. For `C=Cc1cnc([N+](=O)[O-])n1C`, the MIC with Staphylococcus aureus is 50 µg/mL (≈ 326 µM); in the series on Streptococcus pyogenes it was above 100 µg/mL; with Streptococcus pneumoniae it was above 100 µg/mL; against Clostridium perfringens it was 0.5 µg/mL (≈ 3.26 µM); with Proteus vulgaris, 100 µg/mL (≈ 653 µM); in the series with Escherichia coli, 10 µg/mL (≈ 65.3 µM). In addition, the MIC in the series on Shigella sonnei amounted to 20 µg/mL (≈ 131 µM); against Salmonella typhimurium it was 5 µg/mL (≈ 32.6 µM); in the series on Klebsiella pneumoniae it was 10 µg/mL (≈ 65.3 µM); with Pseudomonas aeruginosa it was 20 µg/mL (≈ 131 µM); against Candida albicans, 100 µg/mL (≈ 653 µM); in [1], 50 µg/mL (≈ 326 µM). Further, the MIC amounted to 20 µg/mL (≈ 131 µM) in [2], 1 µg/mL (≈ 6.53 µM) with Trichomonas vaginalis [4] and 1 µg/mL (≈ 6.53 µM) with Trichomonas vaginalis [5]. The same compound showed a 50% effective dose (ED50) with Trichomonas vaginalis [8] of 14 mg/kg. Further, in the series with Trichomonas vaginalis [6], the “Ratio ED50” value came out at 3. This compound returned a median lethal dose (LD50) in [7] of 480 mg/kg.
With `Br.CC(/C=C/c1cnc([N+](=O)[O-])n1C)=N\NC1=NCCN1`, the MIC was 50 µg/mL in the series with Staphylococcus aureus; 20 µg/mL against Streptococcus pyogenes; 20 µg/mL in the series on Streptococcus pneumoniae; 100 µg/mL against Clostridium perfringens; above 100 µg/mL against Proteus vulgaris; 100 µg/mL with Escherichia coli. The MIC (against Shigella sonnei; against Salmonella typhimurium; against Klebsiella pneumoniae; against Pseudomonas aeruginosa; against Candida albicans; in [1]) was above 100 µg/mL throughout. Besides, the minimal inhibitory concentration (MIC) in series [2] is above 100 µg/mL; in series [3], 100 µg/mL; against Trichomonas vaginalis [4], 20 µg/mL; in the series on Trichomonas vaginalis [5], 100 µg/mL.
With `COC(=O)/C=C/c1cnc([N+](=O)[O-])n1C`, the MIC in the series on Staphylococcus aureus is above 100 µg/mL; with Streptococcus pyogenes it was above 100 µg/mL; against Streptococcus pneumoniae, above 100 µg/mL; in the series on Clostridium perfringens it was above 100 µg/mL; in the series on Proteus vulgaris, above 100 µg/mL; against Escherichia coli it was 50 µg/mL (≈ 237 µM). Moreover, the MIC in the series on Shigella sonnei is 100 µg/mL (≈ 474 µM); with Salmonella typhimurium it was 100 µg/mL (≈ 474 µM); against Klebsiella pneumoniae, above 100 µg/mL; against Pseudomonas aeruginosa, above 100 µg/mL; in the series on Candida albicans, above 100 µg/mL; in series [1], 100 µg/mL (≈ 474 µM). Besides, the MIC was 50 µg/mL (≈ 237 µM) in series [2], above 100 µg/mL in series [3], 10 µg/mL (≈ 47.4 µM) in the series with Trichomonas vaginalis [4] and 50 µg/mL (≈ 237 µM) with Trichomonas vaginalis [5]. Also, the “Ratio ED50” value in the series with Trichomonas vaginalis [6] was above 2.8. The compound further came in with an LD50 in series [7] above 1000 mg/kg.
In the case of `Cc1cc(-c2cnc([N+](=O)[O-])n2C)n(CCO)n1`, the minimal inhibitory concentration (MIC) is 20 µg/mL (≈ 79.6 µM) in the series with Staphylococcus aureus; 50 µg/mL (≈ 199 µM) against Streptococcus pyogenes; 50 µg/mL (≈ 199 µM) against Streptococcus pneumoniae; 100 µg/mL (≈ 398 µM) with Clostridium perfringens; above 100 µg/mL against Proteus vulgaris; 50 µg/mL (≈ 199 µM) in the series with Escherichia coli. Besides, the MIC (against Shigella sonnei; against Salmonella typhimurium; against Klebsiella pneumoniae; against Pseudomonas aeruginosa; in the series on Candida albicans; in series [1]) was above 100 µg/mL in each case. The MIC in series [2] is above 100 µg/mL; in series [3] it was above 100 µg/mL; in the series with Trichomonas vaginalis [4], 10 µg/mL (≈ 39.8 µM); in the series with Trichomonas vaginalis [5], 50 µg/mL (≈ 199 µM).
As to `Cc1ccc(S(=O)(=O)OCCn2c(C)cnc2[N+](=O)[O-])cc1`, the minimum inhibitory concentration (MIC) in the series with Staphylococcus aureus is above 100 µg/mL; against Streptococcus pyogenes it was above 100 µg/mL; in the series with Streptococcus pneumoniae, above 100 µg/mL; against Clostridium perfringens, 50 µg/mL (≈ 154 µM); against Proteus vulgaris, above 100 µg/mL; with Escherichia coli it was above 100 µg/mL. The minimum inhibitory concentration (MIC) (against Shigella sonnei; in the series on Salmonella typhimurium; in the series with Klebsiella pneumoniae; with Pseudomonas aeruginosa; against Candida albicans; in series [1]) was above 100 µg/mL each time. In addition, the MIC was 100 µg/mL (≈ 307 µM) in series [2], above 100 µg/mL in [3], 50 µg/mL (≈ 154 µM) against Trichomonas vaginalis [4] and 100 µg/mL (≈ 307 µM) in the series with Trichomonas vaginalis [5]. In addition, in the series on Trichomonas vaginalis [6], the “Ratio ED50” value was above 7. Besides, the LD50 in series [7] was above 1000 mg/kg.
In the case of `Cc1cnc(/N=C/C=C/c2cnc([N+](=O)[O-])n2C)n1C`, the MIC is above 20 µg/mL against Staphylococcus aureus; above 20 µg/mL against Streptococcus pyogenes; above 20 µg/mL in the series on Streptococcus pneumoniae; 10 µg/mL (≈ 36.5 µM) against Clostridium perfringens; above 20 µg/mL against Proteus vulgaris; above 20 µg/mL against Escherichia coli. For the same compound, the minimal inhibitory concentration (MIC) (in the series with Shigella sonnei; against Salmonella typhimurium; against Klebsiella pneumoniae; against Pseudomonas aeruginosa; against Candida albicans; in [1]) was above 20 µg/mL in each case. The MIC in series [2] is above 20 µg/mL; in series [3], above 20 µg/mL; in the series with Trichomonas vaginalis [4], 50 µg/mL (≈ 182 µM); in the series with Trichomonas vaginalis [5], 100 µg/mL (≈ 365 µM).
